Reference: article PMC10221074, “Functional Profiling of the A-Family of Venom Peptides from the Wolf Spider Lycosa shansia” (Toxins, 2023)

Tests used:
[1] = test system: B/Malaysia/2506/2004 (B-Mal); assay type: cell-based, influenza virus
A/Hamburg/05/2009 (H1N1) = assay type: cell-based, influenza virus
A/Hessen/1/2003 (H3N2) = assay type: cell-based, influenza virus
G. mellonella larvae = assay: Insecticidal activity by injection into larvae; assay type: in vivo, Galleria mellonella; conditions: 50 ng peptide injected, 3 cohorts of 10 larvae, survival monitored for 5 days
Description: Insecticidal activity was determined using fourth and fifth instar G. mellonella larvae (L4/L5) obtained from Fauna Topics Zoobedarf Zucht und Handels GmbH (Marbach am Neckar, Germany). Because spider venom is injected via chelicerae, we opted for an injection-based assay to reflect the natural process of envenomation as described earlier. The peptides were dissolved in a 1:1 mixture of DMSO and water to a final concentration of 10 mmol/L. We injected 50 ng of each peptide into the pseudopodium using Omnican-F, 0.30 × 12 mm/G 30 × 1/2”, a 1 mL syringe adjusted to a WPI manual microsyringe injector setup. Injections with water, DMSO/water (1:1) and ethanol (90%) were used as controls, alongside untreated specimens. Insecticidal activity screenings were performed in cohorts of 10 larvae with 3 replicates (30 specimens per treatment or control). […] Survival was monitored every 24 h for 5 days. Mortality was calculated based on the ratio of dead to injected specimens.

[2] = test system: panel of seven bacterial strains; assay: Antibacterial growth assay (OD600), statements on the whole panel; assay type: cell-based; conditions: growth after 48 h
[3] = test system: Pseudomonas aeruginosa DSM 1117; assay: Antibacterial growth assay (OD600); conditions: OD600, medium = 100, MH II broth, 37 °C, peptide 200 µM mixed 50 µL + 50 µL with bacteria, Figure 7: 48 h; for Bacterial growth relative to medium, P. aeruginosa (1117), replicate 1: replicate column 1; for Bacterial growth relative to medium, P. aeruginosa (1117), replicate 2: replicate column 2; for Bacterial growth relative to medium, P. aeruginosa (1117), replicate 3: replicate column 3
[4] = test system: Pseudomonas aeruginosa DSM 50071; assay: Antibacterial growth assay (OD600); conditions: OD600, medium = 100, MH II broth, 37 °C, peptide 200 µM mixed 50 µL + 50 µL with bacteria, Figure 7: 48 h; for Bacterial growth relative to medium, P. aeruginosa (50071), replicate 1: replicate column 1; for Bacterial growth relative to medium, P. aeruginosa (50071), replicate 2: replicate column 2; for Bacterial growth relative to medium, P. aeruginosa (50071), replicate 3: replicate column 3
Description: (§1) Cryo-conserved cultures of selected bacterial strains (Table 4) were transferred to Tryptic Soy Agar (TSA) plates (Carl Roth) with a sterile inoculation loop, sealed with Parafilm (BEMIS, Neenah, WI, USA), and incubated for 1–2 days at 37 °C depending on growth. Single colonies were picked and transferred into 2–3 mL of the Mueller–Hinton II (MH II) broth (BD, Heidelberg, Germany). The bacteria were cultivated overnight, subcultured on fresh medium and grown for 3–4 h before testing at 37 °C, with shaking at 180 rpm. We measured the optical density at 600 nm (OD600) of 1 mL of the bacterial suspensions in polystyrene cuvettes (SARSTED, Nümbrecht, Germany) using an Ultrospec 10 spectrophotometer (Biochrome, Cambridge, UK). We then diluted them with the MH II medium to the preferred OD600 (Table 2). The peptides were dissolved in DMSO to generate 10 mmol/L stocks and diluted with the MH II medium to 200 µM before the assay. We used 10 µg/mL (~40 µg/mL for S. epidermidis) gentamicin and colistin (Sigma-Aldrich, Taufkirchen, Germany), DMSO and the medium only as controls. The bacteria were transferred to 96-multiwell plates with a final volume of 100 µL per well (50 µL bacterial suspension, and 50 µL test peptide). The OD600 was measured at 0, 24 and 48 h using a BioTek Eon microplate reader followed by analysis with Gen5 v2.09.

[5] = test system: Micrococcus luteus DSM 20030; assay: Antibacterial growth assay (OD600); conditions: for Antibacterial activity (in words): M. luteus DSM 20030, growth after 48 h; for Bacterial growth relative to medium, M. luteus, replicate 1 / Bacterial growth relative to medium, M. luteus, replicate 2 / Bacterial growth relative to medium, M. luteus, replicate 3: OD600, medium = 100, MH II broth, 37 °C, peptide 200 µM mixed 50 µL + 50 µL with bacteria, Figure 7: 48 h; for Bacterial growth relative to medium, M. luteus, replicate 1: replicate column 1; for Bacterial growth relative to medium, M. luteus, replicate 2: replicate column 2; for Bacterial growth relative to medium, M. luteus, replicate 3: replicate column 3
[6] = test system: Staphylococcus aureus DSM 2569; assay: Antibacterial growth assay (OD600); conditions: for Bacterial growth relative to medium, S. aureus, replicate 1 / Bacterial growth relative to medium, S. aureus, replicate 2 / Bacterial growth relative to medium, S. aureus, replicate 3: OD600, medium = 100, MH II broth, 37 °C, peptide 200 µM mixed 50 µL + 50 µL with bacteria, Figure 7: 48 h; for Bacterial growth relative to medium, S. aureus, replicate 1: replicate column 1; for Bacterial growth relative to medium, S. aureus, replicate 2: replicate column 2; for Bacterial growth relative to medium, S. aureus, replicate 3: replicate column 3
[7] = test system: Escherichia coli BL21(DE3); assay: Antibacterial growth assay (OD600); conditions: for Bacterial growth relative to medium, E. coli, replicate 1 / Bacterial growth relative to medium, E. coli, replicate 2 / Bacterial growth relative to medium, E. coli, replicate 3: OD600, medium = 100, MH II broth, 37 °C, peptide 200 µM mixed 50 µL + 50 µL with bacteria, Figure 7: 48 h; for Bacterial growth relative to medium, E. coli, replicate 1: replicate column 1; for Bacterial growth relative to medium, E. coli, replicate 2: replicate column 2; for Bacterial growth relative to medium, E. coli, replicate 3: replicate column 3
[8] = test system: Listeria monocytogenes DSM 20600; assay: Antibacterial growth assay (OD600); conditions: for Bacterial growth relative to medium, L. monocytogenes, replicate 1 / Bacterial growth relative to medium, L. monocytogenes, replicate 2 / Bacterial growth relative to medium, L. monocytogenes, replicate 3: OD600, medium = 100, MH II broth, 37 °C, peptide 200 µM mixed 50 µL + 50 µL with bacteria, Figure 7: 48 h; for Bacterial growth relative to medium, L. monocytogenes, replicate 1: replicate column 1; for Bacterial growth relative to medium, L. monocytogenes, replicate 2: replicate column 2; for Bacterial growth relative to medium, L. monocytogenes, replicate 3: replicate column 3
Description: as §1

[9] = test system: Staphylococcus epidermidis DSM 28319; assay: Antibacterial growth assay (OD600); conditions: for Bacterial growth relative to medium, S. epidermidis, replicate 1 / Bacterial growth relative to medium, S. epidermidis, replicate 2 / Bacterial growth relative to medium, S. epidermidis, replicate 3: OD600, medium = 100, MH II broth, 37 °C, peptide 200 µM mixed 50 µL + 50 µL with bacteria, Figure 7: 48 h; for Bacterial growth relative to medium, S. epidermidis, replicate 1: replicate column 1; for Bacterial growth relative to medium, S. epidermidis, replicate 2: replicate column 2; for Bacterial growth relative to medium, S. epidermidis, replicate 3: replicate column 3

LLDVVKSKIGQTGLL [LS-AMP-A16]
Viability of infected cells relative to aprotinin, Replicate 1 [1]: 0.002646
Viability of infected cells relative to aprotinin, Replicate 2 [1]: 0.01088
Viability of infected cells relative to aprotinin, Replicate 3 [1]: 0.03862
Viability of infected cells relative to aprotinin, Replicate 1 (A/Hamburg/05/2009 (H1N1)): 0.02774
Viability of infected cells relative to aprotinin, Replicate 2 (A/Hamburg/05/2009 (H1N1)): 0.02676
Viability of infected cells relative to aprotinin, Replicate 3 (A/Hamburg/05/2009 (H1N1)): 0.01877
Viability of infected cells relative to aprotinin, Replicate 1 (A/Hessen/1/2003 (H3N2)): 0.0324
Viability of infected cells relative to aprotinin, Replicate 2 (A/Hessen/1/2003 (H3N2)): 0.05366
Viability of infected cells relative to aprotinin, Replicate 3 (A/Hessen/1/2003 (H3N2)): 0.1082
Insecticidal effect on larvae (in words) (G. mellonella larvae): Individual dead insects
Antibacterial activity over the panel (in words) [2]: broad activity against all tested bacteria except P. aeruginosa DSM50071
Bacterial growth relative to medium, P. aeruginosa (1117), replicate 1 [3]: 71.8168
Bacterial growth relative to medium, P. aeruginosa (1117), replicate 2 [3]: 74.7999
Bacterial growth relative to medium, P. aeruginosa (1117), replicate 3 [3]: 64.6393
Bacterial growth relative to medium, P. aeruginosa (50071), replicate 1 [4]: 93.645
Bacterial growth relative to medium, P. aeruginosa (50071), replicate 2 [4]: 105.945
Bacterial growth relative to medium, P. aeruginosa (50071), replicate 3 [4]: 72.2488
Antibacterial activity (in words) [5]: able to decrease the growth
Bacterial growth relative to medium, M. luteus, replicate 1 [5]: 57.3268
Bacterial growth relative to medium, M. luteus, replicate 2 [5]: 84.1216
Bacterial growth relative to medium, M. luteus, replicate 3 [5]: 27.4989
Bacterial growth relative to medium, S. aureus, replicate 1 [6]: 50.7381
Bacterial growth relative to medium, S. aureus, replicate 2 [6]: 99.8365
Bacterial growth relative to medium, S. aureus, replicate 3 [6]: 66.4796
Antibacterial activity (in words) ([6]; S. aureus DSM 2569, growth after 48 h): able to decrease the growth
Antibacterial activity (in words) ([7]; E. coli BL21(DE3), growth after 48 h): able to decrease the growth
Bacterial growth relative to medium, E. coli, replicate 1 [7]: 67.9376
Bacterial growth relative to medium, E. coli, replicate 2 [7]: 59.8494
Bacterial growth relative to medium, E. coli, replicate 3 [7]: 34.0285
Antibacterial activity (in words) ([8]; L. monocytogenes DSM 20600, growth after 48 h): able to decrease the growth
Bacterial growth relative to medium, L. monocytogenes, replicate 1 [8]: 81.5984
Bacterial growth relative to medium, L. monocytogenes, replicate 2 [8]: 58.0902
Bacterial growth relative to medium, L. monocytogenes, replicate 3 [8]: 20.8033
Bacterial growth relative to medium, S. epidermidis, replicate 1 [9]: 52.6925
Bacterial growth relative to medium, S. epidermidis, replicate 2 [9]: 45.3012
Bacterial growth relative to medium, S. epidermidis, replicate 3 [9]: 72.1389
Antibacterial activity (in words) ([9]; S. epidermidis DSM 28319, growth after 48 h): able to decrease the growth

SLLGLLDVVKNTVGQT [LS-AMP-A10]
Viability of infected cells relative to aprotinin, Replicate 1 [1]: 0.07328
Viability of infected cells relative to aprotinin, Replicate 2 [1]: 0.09773
Viability of infected cells relative to aprotinin, Replicate 3 [1]: 0.07183
Viability of infected cells relative to aprotinin, Replicate 1 (A/Hamburg/05/2009 (H1N1)): 0.0352
Viability of infected cells relative to aprotinin, Replicate 2 (A/Hamburg/05/2009 (H1N1)): 0.02417
Viability of infected cells relative to aprotinin, Replicate 3 (A/Hamburg/05/2009 (H1N1)): 0.03391
Viability of infected cells relative to aprotinin, Replicate 1 (A/Hessen/1/2003 (H3N2)): 0.05441
Viability of infected cells relative to aprotinin, Replicate 2 (A/Hessen/1/2003 (H3N2)): 0.1761
Viability of infected cells relative to aprotinin, Replicate 3 (A/Hessen/1/2003 (H3N2)): 0.1729
Viability of infected cells relative to aprotinin, Replicate 4 (A/Hessen/1/2003 (H3N2); […], replicate 4 (additional internal control)): 0.1942
Insecticidal effect on larvae (in words) (G. mellonella larvae): Individual dead insects
Antibacterial activity over the panel (in words) [2]: inhibited the growth of most of the bacteria except two
Bacterial growth relative to medium, P. aeruginosa (1117), replicate 1 [3]: 65.0772
Bacterial growth relative to medium, P. aeruginosa (1117), replicate 2 [3]: 90.1148
Bacterial growth relative to medium, P. aeruginosa (1117), replicate 3 [3]: 64.0892
Bacterial growth relative to medium, P. aeruginosa (50071), replicate 1 [4]: 97.2952
Bacterial growth relative to medium, P. aeruginosa (50071), replicate 2 [4]: 110.352
Bacterial growth relative to medium, P. aeruginosa (50071), replicate 3 [4]: 83.9978
Antibacterial activity (in words) [5]: no activity
Bacterial growth relative to medium, M. luteus, replicate 1 [5]: 61.1915
Bacterial growth relative to medium, M. luteus, replicate 2 [5]: 88.7389
Bacterial growth relative to medium, M. luteus, replicate 3 [5]: 35.3419
Bacterial growth relative to medium, S. aureus, replicate 1 [6]: 64.1206
Bacterial growth relative to medium, S. aureus, replicate 2 [6]: 64.9771
Bacterial growth relative to medium, S. aureus, replicate 3 [6]: 91.1709
Bacterial growth relative to medium, E. coli, replicate 1 [7]: 81.6291
Bacterial growth relative to medium, E. coli, replicate 2 [7]: 64.3105
Bacterial growth relative to medium, E. coli, replicate 3 [7]: 57.0069
Bacterial growth relative to medium, L. monocytogenes, replicate 1 [8]: 109.148
Bacterial growth relative to medium, L. monocytogenes, replicate 2 [8]: 78.161
Bacterial growth relative to medium, L. monocytogenes, replicate 3 [8]: 28.6946
Bacterial growth relative to medium, S. epidermidis, replicate 1 [9]: 79.4001
Bacterial growth relative to medium, S. epidermidis, replicate 2 [9]: 71.0012
Bacterial growth relative to medium, S. epidermidis, replicate 3 [9]: 83.073
